Assay results reported in patent publication US6515025B2, “Use of ethynyl alanine amino diol compounds to inhibit enzymatic conversion of angiotensinogen to angiotensin I” (Pharmacia Corporation, priority 1991, dated 2003).
Values joined by “and” are separate entries in the source; they are usually repeats but may differ in a detail not shown here. Identical values can stand only once. Like-named read-outs stand apart in the source and are kept apart here.

Experiments:
[1] = test system: Plasma Renin Activity (PRA); assay: Marmoset plasma renin activity (PRA) reduction on oral administration; type: in vivo, Marmoset monkeys (Callithrix jacchus); settings: 0.1 MPK, IG; for inhibition at 0.1 mg/kg: Primates, po
Description: The oral activity of renin inhibitor compounds was determined in vivo in Marmoset monkeys using the following procedure. Common Marmoset monkeys (Callithrix jacchus, Charles River, both sexes, body weight 300-400 g) were placed on a modified high-protein low-sodium diet (Purina, St. Louis, Mo.) for 1 week. About 24 hours prior to the administration of test compound, Lasix (5 mg/kg, im) was given. On the day of the test, the animal was anesthetized with isoflurane, body weight recorded, and a baseline blood sample taken. Then, test compound was given intragastrically and blood samples were taken in K-EDTA for plasma renin activity at appropriate time intervals. The PRA was determined by using the protocol outlined below. Results are expressed in terms of PRA at various time intervals both before and after compound administrations (“Pre” means pretreatment levels before compound administrations). Also included is percent inhibition (% INH from pretreatment levels).
I. Angiotensin I Generation
25 ml of the above reaction mixtures, in duplicate, were incubated at 37° C. or 0° C. for 2 hours.
II. Determination of Angiotensin I Concentrations
Angiotensin I (AI) concentrations were determined by radioimmunoassays with a commercial kit from NEN Co.
III. Calculation of Plasma Renin Activity
PRA (ng AI/ml/hr)=(AI at 37°−AI at 0°)/2 hr.

[2] = Oral bioavailability studies in dogs (plasma concentration by bioassay); type: in vivo; settings: dog
Description: The bioavailability in marmosets and dogs was determined by sampling the blood via the femoral vein at various time points after administering the renin inhibitor compounds of the invention in polyethylene glycol 400 at an intragastric dose of 10 mg/kg or at an intravenous dose of 1 mg/kg. Compound concentration in plasma was determined using the bioassay technique described below. The percent bioavailability was calculated by dividing the area under the concentration-vs.-time curve obtained from the intragastric experiment by the area under the concentration-vs.-time curve obtained from the intravenous experiment (adjusting for different doses), and multiplying the result by 100%. The bioavailibility of Example 1 compound is 27% in marmosets and 33% in dogs.
Renin inhibitor plasma concentrations were determined by a bioassay. The plasma samples were extracted with acetonitrile and the extract was evaporated to dryness under nitrogen. Residue was dissolved in 4% bovine serum albumin containing 0.9% NaCl and 5% EDTA. The dissolved residue (0.1 ml) was incubated with a reaction mixture containing human plasma (0.12 ml), 5% phenylmethysulfonylfluoride (1.2 ul), 10% neomycin (2.4 ul), 0.5 M TES buffer (pH 7.4, 24 ul), and 0.6 mU/ml recombinant human renin (1000 U/mg, 50 ul) at 37° C. for 90 minutes. The renin activity was determined by a standard angiotensin I radioimmunoassay (New England Nuclear Corp.). The amount of test compound in the plasma was determined by comparing the extent of inhibition of renin activity with that produced by a known amount of test compound added to plasma and analyzed above.

Oral (%) Bioavail, Mean ± SE ([2]; IG 10 mg/kg vs IV 1 mg/kg): 33.1 ± 3.8%
Oral (%) Bioavail ([2]; IG 10 mg/kg vs IV 1 mg/kg, individual animals): 35.8% and 25.6% and 38.0%
Estimated Plasma Concentration ([2]; IG at 10 mg/kg, 1 hr, individual animals, 10 mg/kg): 859.6 ng/mL
Estimated Plasma Concentration ([2]; IG at 10 mg/kg, 2 hr, individual animals, 10 mg/kg): 352.7 ng/mL and 554.5 ng/mL
Estimated Plasma Concentration ([2]; IG at 10 mg/kg, 4 hr, individual animals, 10 mg/kg): 68.8 ng/mL and 130.3 ng/mL
Estimated Plasma Concentration ([2]; IG at 10 mg/kg, 6 hr, individual animals, 10 mg/kg): 47.1 ng/mL and 72.4 ng/mL
Estimated Plasma Concentration ([2]; IG at 10 mg/kg, 8 hr, individual animals, 10 mg/kg): 25.4 ng/mL and 45.4 ng/mL
Estimated Plasma Concentration ([2]; IG at 10 mg/kg, 24 hr, individual animals, 10 mg/kg): 8.4 ng/mL and 8.0 ng/mL
Estimated Plasma Concentration ([2]; IV at 1 mg/kg, 2 min, individual animals, 1 mg/kg): 3284.4 ng/mL and 2982.7 ng/mL
Estimated Plasma Concentration ([2]; IV at 1 mg/kg, 5 min, individual animals, 1 mg/kg): 680.9 ng/mL and 521.1 ng/mL
Estimated Plasma Concentration ([2]; IV at 1 mg/kg, 10 min, individual animals, 1 mg/kg): 307.1 ng/mL and 218.0 ng/mL
Estimated Plasma Concentration ([2]; IV at 1 mg/kg, 15 min, individual animals, 1 mg/kg): 144.4 ng/mL and 146.9 ng/mL
Estimated Plasma Concentration ([2]; IV at 1 mg/kg, 30 min, individual animals, 1 mg/kg): 102.8 ng/mL and 122.5 ng/mL
Estimated Plasma Concentration ([2]; IV at 1 mg/kg, 1 hr, individual animals, 1 mg/kg): 67.6 ng/mL and 50.0 ng/mL
Estimated Plasma Concentration ([2]; IV at 1 mg/kg, 2 hr, individual animals, 1 mg/kg): 56.0 ng/mL and 69.8 ng/mL
Estimated Plasma Concentration ([2]; IV at 1 mg/kg, 4 hr, individual animals, 1 mg/kg): 23.5 ng/mL
Estimated Plasma Concentration ([2]; IV at 1 mg/kg, 6 hr, individual animals, 1 mg/kg): 10.2 ng/mL and 13.5 ng/mL
Estimated Plasma Concentration ([2]; IV at 1 mg/kg, 8 hr, individual animals, 1 mg/kg): 4.9 ng/mL and 6.1 ng/mL
Estimated Plasma Concentration ([2]; IV at 1 mg/kg, 24 hr, individual animals, 1 mg/kg): 1.5 ng/mL and 1.3 ng/mL
Vd ([2]; individual animals): 8.7 L/kg and 8.3 L/kg
t1/2 ([2]; individual animals): 4.4 h and 4.3 h
half-life ([2]; plasma, dogs, read-out: terminal half-life (converted)): 4.7 h
Vd ([2]; plasma, dogs, read-out: volume of distribution): 9.5 L/kg
Vd ([2]; plasma, individual animals, read-out: Vd): 11.5 L/kg
half-life ([2]; plasma, individual animals, read-out: t1/2 (converted)): 5.3 h
concentration at 2 min ([2]; plasma, iv, 1 mg/kg, IV at 1 mg/kg, 2 min, individual animals, read-out: Estimated Plasma Concentration): 2420 ng/mL
concentration at 2 min ([2]; plasma, iv, 1 mg/kg, IV at 1 mg/kg, 2 min, read-out: Estimated Plasma Concentration, Mean ± SE): 2890 ± 254 ng/mL
concentration at 5 min ([2]; plasma, iv, 1 mg/kg, IV at 1 mg/kg, 5 min, individual animals, read-out: Estimated Plasma Concentration): 613 ng/mL
concentration at 5 min ([2]; plasma, iv, 1 mg/kg, IV at 1 mg/kg, 5 min, read-out: Estimated Plasma Concentration, Mean ± SE): 605 ± 46.3 ng/mL
concentration at 10 min ([2]; plasma, iv, 1 mg/kg, IV at 1 mg/kg, 10 min, individual animals, read-out: Estimated Plasma Concentration): 299 ng/mL
concentration at 10 min ([2]; plasma, iv, 1 mg/kg, IV at 1 mg/kg, 10 min, read-out: Estimated Plasma Concentration, Mean ± SE): 275 ± 28.4 ng/mL
concentration at 15 min ([2]; plasma, iv, 1 mg/kg, IV at 1 mg/kg, 15 min, individual animals, read-out: Estimated Plasma Concentration): 218 ng/mL
SMILES: C#CC[C@H](NC(=O)C(CC(=O)N(C)CCN(C)C)Cc1ccccc1)C(=O)NC(CC1CCCCC1)[C@@H](O)C(O)CC(C)C (relative stereo) [Example 1, N1-[1R*-[[[1S,1R*-(cyclohexylmethyl)-2S*,3R*-dihydroxy-5-methylhexyl]amino]carbonyl]-3-butynyl]-N4-[2-(dimethylamino)ethyl]-N4-methyl-2S*-(phenylmethyl)butanediamide]
% INH (from pretreatment PRA) ([1]; 60 min, individual monkeys): 76.6% and 95.6%
PRA ([1]; 60 min from dosing, individual monkeys): 2.8 ngAI/ml/hr and 16.4 ngAI/ml/hr and 4 ngAI/ml/hr
% INH (from pretreatment PRA) ([1]; 120 min, individual monkeys): 91.1% and 71.5% and 94.2%
PRA ([1]; 120 min from dosing, individual monkeys): 4.1 ngAI/ml/hr and 20 ngAI/ml/hr and 5.2 ngAI/ml/hr
% INH (from pretreatment PRA) ([1]; 240 min, individual monkeys): 89.8% and 67.8% and 45%
PRA ([1]; 240 min from dosing, individual monkeys): 9.2 ngAI/ml/hr and 14.8 ngAI/ml/hr and 38.7 ngAI/ml/hr
PRA ([1]; Pre (pretreatment level), individual monkeys): 45.8 ngAI/ml/hr and 70.2 ngAI/ml/hr and 90.1 ngAI/ml/hr
inhibition at 0.1 mg/kg ([1]; 60 min, individual monkeys, read-out: % INH (from pretreatment PRA)): 93.8%
inhibition at 0.1 mg/kg ([1]; 1 h, 60 min, mean of monkeys A-C, read-out: MEAN % INH): 88.7 ± 6%
inhibition at 0.1 mg/kg ([1]; 2 h, 120 min, mean of monkeys A-C, read-out: MEAN % INH): 85.6 ± 7%
inhibition at 0.1 mg/kg ([1]; 4 h, 240 min, mean of monkeys A-C, read-out: MEAN % INH): 67.5 ± 13%
Estimated Plasma Concentration ([2]; IG at 10 mg/kg, 15 min, individual animals, 10 mg/kg): 105.7 ng/mL and <2.0 ng/mL and 265.6 ng/mL
Estimated Plasma Concentration ([2]; IG at 10 mg/kg, 30 min, individual animals, 10 mg/kg): 495.9 ng/mL and 330.4 ng/mL and 864.7 ng/mL
